Legend:
[1] = Permeability of the compound by PAMPA; type: ADME; conditions: read-out: permeability
[2] = biological target: T1, Poly [ADP-ribose] polymerase tankyrase-2 (Homo sapiens, UniProt Q9H2K2)
T1 sequence (Q9H2K2 whole entry): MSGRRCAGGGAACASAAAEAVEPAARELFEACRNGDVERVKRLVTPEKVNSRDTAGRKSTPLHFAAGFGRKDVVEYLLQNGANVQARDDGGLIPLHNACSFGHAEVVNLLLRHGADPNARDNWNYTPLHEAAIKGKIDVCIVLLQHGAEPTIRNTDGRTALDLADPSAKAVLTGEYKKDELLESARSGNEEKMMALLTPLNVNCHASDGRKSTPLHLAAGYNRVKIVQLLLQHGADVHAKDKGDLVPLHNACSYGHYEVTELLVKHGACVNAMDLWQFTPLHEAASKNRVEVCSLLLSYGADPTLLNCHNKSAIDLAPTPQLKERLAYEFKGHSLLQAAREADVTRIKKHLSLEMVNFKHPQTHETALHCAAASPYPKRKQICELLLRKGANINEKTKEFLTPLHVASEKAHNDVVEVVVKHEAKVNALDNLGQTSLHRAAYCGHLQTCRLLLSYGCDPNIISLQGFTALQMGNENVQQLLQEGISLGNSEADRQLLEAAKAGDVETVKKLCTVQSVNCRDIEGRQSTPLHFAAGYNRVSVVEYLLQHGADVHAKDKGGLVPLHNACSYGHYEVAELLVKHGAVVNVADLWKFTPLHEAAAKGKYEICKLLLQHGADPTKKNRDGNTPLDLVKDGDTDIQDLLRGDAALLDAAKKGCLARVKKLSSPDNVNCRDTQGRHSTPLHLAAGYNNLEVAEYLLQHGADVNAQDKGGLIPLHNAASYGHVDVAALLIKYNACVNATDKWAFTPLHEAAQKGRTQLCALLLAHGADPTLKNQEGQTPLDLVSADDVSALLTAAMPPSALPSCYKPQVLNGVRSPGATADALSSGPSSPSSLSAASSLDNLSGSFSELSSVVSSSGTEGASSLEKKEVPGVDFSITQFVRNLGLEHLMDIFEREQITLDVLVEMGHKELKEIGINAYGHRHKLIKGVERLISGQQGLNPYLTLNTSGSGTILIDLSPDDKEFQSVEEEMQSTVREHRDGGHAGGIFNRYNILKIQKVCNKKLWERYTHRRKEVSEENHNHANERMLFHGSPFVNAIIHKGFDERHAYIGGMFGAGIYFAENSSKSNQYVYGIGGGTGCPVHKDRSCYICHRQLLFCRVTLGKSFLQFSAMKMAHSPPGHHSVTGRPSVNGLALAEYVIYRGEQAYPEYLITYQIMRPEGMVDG
Description: Inhibition of recombinant human N-terminal TEV cleavage site-fused/FLAG-poly his-tagged TNKS2 SAM-PARP domain (613 to 1166 residues) expressed in Escherichia coli assessed as reduction in auto-PARylation preincubated for 10 mins followed by biotinylated-NAD+ addition and measured after 45 mins by ELISA

COLO 320DM = assay: Antitumor activity against human COLO320DM cells xenografted in mouse assessed as tumor growth inhibition at 150 mg/kg, ip administered twice daily for 11 days relative to control; type: functional; conditions: 264 h, read-out: TGI
[3] = biological target: Adenosine receptor A2a (Homo sapiens) (UniProt P29274); assay: Displacement of [3H]CGS-21680 from full-length recombinant human A2A receptor expressed in HEK293 cells at 10 uM measured after 90 mins by scintillation counting method relative to control; type: cell-based
[4] = biological target: Acetylcholinesterase (Homo sapiens) (UniProt P22303); assay: Inhibition of human recombinant full-length ACES expressed in HEK293 cells at 10 uM using acetylthiocholine iodide as substrate preincubated for 15 mins followed by substrate addition and measured after 20 mins by DTNB reagent based spectrophotometric method relative to control
[5] = biological target: Androgen receptor (Homo sapiens) (UniProt P10275); assay: Displacement of [3H]Methyltrienolone from human LNCAP cells-derived androgen receptor at 10 uM measured after 20 hrs by scintillation counting method relative to control; type: cell-based
[6] = biological target: Beta-2 adrenergic receptor (Homo sapiens) (UniProt P07550); assay: Displacement of [3H]CGP-12177 from full-length recombinant human beta2 receptor expressed in CHO cells co-expressing NBR1 at 10 uM measured after 120 mins by scintillation counting method relative to control; type: cell-based
[7] = biological target: D(1A) dopamine receptor (Homo sapiens) (UniProt P21728); assay: Displacement of [3H]SCH-23390 from full-length recombinant human D1 receptor expressed in CHO cells at 10 uM measured after 120 mins by scintillation counting method relative to control; type: cell-based
[8] = biological target: D(2) dopamine receptor (Homo sapiens) (UniProt P14416); assay: Displacement of [3H]spiperone from full-length recombinant human D2S receptor expressed in CHO cells at 10 uM measured after 120 mins by scintillation counting method relative to control; type: cell-based
[9] = biological target: Delta-type opioid receptor (Homo sapiens) (UniProt P41143); assay: Displacement of [3H]naltrindole from full-length recombinant human DOR expressed in HEK293 cells at 10 uM measured after 60 mins by scintillation counting method relative to control; type: cell-based
[10] = biological target: Kappa-type opioid receptor (Homo sapiens) (UniProt P41145); assay: Displacement of [3H]diprenorphine from full-length recombinant human KOR expressed in HEK293 cells at 10 uM measured after 60 mins by scintillation counting method relative to control; type: cell-based
[11] = biological target: Muscarinic acetylcholine receptor M2 (Homo sapiens) (UniProt P08172); assay: Displacement of [3H]N-Methylscopolamine from full-length recombinant human M2 receptor expressed in CHOK1 cells at 10 uM measured after 120 mins by scintillation counting method relative to control; type: cell-based
[12] = biological target: GABA-A receptor; anion channel (Rattus norvegicus) (UniProt O09028+P15431+P18506+P18508+P19969+P20236+P23574+P23576+P28471+P28473+P30191+P62813+P63079+P63138+Q91ZM7+Q9ES14); assay: Displacement of [3H]flunitrazepam from GABAA receptor in Wistar rat brain at 10 uM measured after 60 mins by scintillation counting method relative to control; type: tissue-based

Sequence of Muscarinic acetylcholine receptor M2 (Homo sapiens) (P08172 whole entry): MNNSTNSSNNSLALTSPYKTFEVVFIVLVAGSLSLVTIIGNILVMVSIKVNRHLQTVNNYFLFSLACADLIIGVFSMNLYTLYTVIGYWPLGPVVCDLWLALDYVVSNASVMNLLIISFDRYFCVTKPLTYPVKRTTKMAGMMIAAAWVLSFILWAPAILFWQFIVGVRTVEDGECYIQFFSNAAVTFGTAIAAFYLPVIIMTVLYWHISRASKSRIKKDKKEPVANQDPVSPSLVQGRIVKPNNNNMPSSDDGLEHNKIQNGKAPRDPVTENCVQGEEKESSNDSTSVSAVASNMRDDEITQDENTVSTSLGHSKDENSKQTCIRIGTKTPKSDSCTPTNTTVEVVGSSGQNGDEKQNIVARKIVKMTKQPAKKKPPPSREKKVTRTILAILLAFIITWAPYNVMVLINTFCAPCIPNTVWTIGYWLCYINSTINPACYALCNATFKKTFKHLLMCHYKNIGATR
Sequence of Beta-2 adrenergic receptor (Homo sapiens) (P07550 whole entry, looked up): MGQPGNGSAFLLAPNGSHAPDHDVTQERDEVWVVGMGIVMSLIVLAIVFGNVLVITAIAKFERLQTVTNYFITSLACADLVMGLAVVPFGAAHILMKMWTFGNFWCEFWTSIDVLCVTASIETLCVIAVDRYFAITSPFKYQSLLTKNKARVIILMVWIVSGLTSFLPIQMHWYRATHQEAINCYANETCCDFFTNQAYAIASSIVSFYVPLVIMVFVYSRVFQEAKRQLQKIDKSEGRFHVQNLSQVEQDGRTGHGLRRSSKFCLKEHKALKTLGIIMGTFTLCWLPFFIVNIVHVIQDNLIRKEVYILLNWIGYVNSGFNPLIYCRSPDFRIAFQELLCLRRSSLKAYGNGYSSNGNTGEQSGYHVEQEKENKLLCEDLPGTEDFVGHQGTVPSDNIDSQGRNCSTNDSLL
Sequence of Kappa-type opioid receptor (Homo sapiens) (P41145 whole entry): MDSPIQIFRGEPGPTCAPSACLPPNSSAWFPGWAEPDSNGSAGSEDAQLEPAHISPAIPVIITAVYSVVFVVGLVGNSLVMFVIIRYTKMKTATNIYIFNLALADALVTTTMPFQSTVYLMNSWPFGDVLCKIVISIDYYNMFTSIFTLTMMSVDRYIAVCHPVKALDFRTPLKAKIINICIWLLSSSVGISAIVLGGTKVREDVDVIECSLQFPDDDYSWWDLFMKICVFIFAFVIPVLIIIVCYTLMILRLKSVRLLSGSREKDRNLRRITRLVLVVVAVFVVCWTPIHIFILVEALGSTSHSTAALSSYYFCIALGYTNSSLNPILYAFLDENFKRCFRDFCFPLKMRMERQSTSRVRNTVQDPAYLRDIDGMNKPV
Sequence of D(2) dopamine receptor (Homo sapiens) (P14416 whole entry): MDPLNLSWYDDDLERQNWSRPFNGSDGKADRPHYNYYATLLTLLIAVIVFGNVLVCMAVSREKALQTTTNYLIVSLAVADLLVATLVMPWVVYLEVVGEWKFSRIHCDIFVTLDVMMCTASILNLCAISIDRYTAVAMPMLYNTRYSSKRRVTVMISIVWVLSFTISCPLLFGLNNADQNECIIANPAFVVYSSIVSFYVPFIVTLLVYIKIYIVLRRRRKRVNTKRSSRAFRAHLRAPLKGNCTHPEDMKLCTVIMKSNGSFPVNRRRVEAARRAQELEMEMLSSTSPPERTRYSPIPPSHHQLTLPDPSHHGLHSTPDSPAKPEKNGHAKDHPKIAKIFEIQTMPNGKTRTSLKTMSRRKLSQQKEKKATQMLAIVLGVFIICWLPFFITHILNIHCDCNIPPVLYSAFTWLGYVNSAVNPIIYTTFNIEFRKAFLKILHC
Sequence of Delta-type opioid receptor (Homo sapiens) (P41143 whole entry): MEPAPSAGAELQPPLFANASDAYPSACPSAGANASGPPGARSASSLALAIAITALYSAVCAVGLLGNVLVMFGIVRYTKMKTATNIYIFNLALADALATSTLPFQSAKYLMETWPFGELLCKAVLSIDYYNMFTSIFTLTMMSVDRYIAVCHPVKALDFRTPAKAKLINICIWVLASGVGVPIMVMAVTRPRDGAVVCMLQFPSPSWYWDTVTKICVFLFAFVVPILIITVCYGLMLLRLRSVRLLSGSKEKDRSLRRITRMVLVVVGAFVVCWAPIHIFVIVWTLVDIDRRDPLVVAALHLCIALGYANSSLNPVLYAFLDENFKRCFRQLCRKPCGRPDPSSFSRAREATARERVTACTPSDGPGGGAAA
Sequence of Androgen receptor (Homo sapiens) (P10275 whole entry): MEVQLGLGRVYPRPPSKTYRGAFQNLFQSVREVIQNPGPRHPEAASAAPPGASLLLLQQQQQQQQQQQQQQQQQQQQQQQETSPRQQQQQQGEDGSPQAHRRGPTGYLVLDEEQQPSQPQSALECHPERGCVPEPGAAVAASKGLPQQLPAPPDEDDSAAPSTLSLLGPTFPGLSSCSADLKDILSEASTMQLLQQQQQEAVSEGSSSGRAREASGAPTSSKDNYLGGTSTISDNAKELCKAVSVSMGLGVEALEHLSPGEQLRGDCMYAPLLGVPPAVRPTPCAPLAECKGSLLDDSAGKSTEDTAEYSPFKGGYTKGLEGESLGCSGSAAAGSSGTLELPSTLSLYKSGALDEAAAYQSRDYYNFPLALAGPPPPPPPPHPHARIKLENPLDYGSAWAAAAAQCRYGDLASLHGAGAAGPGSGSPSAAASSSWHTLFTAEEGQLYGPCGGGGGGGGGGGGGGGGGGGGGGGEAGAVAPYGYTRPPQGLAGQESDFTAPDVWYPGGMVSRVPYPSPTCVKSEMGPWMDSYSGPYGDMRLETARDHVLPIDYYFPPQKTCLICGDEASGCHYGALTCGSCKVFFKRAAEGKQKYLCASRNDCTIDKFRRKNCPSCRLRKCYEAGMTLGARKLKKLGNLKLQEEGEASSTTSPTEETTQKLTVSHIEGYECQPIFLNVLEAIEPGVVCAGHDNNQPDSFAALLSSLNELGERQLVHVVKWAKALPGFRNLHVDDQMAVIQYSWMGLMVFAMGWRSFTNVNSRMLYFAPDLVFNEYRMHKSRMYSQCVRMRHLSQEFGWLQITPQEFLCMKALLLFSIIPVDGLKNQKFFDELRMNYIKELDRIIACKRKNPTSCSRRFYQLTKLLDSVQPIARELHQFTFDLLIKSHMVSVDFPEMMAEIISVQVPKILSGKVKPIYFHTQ
Sequence of Adenosine receptor A2a (Homo sapiens) (P29274 whole entry): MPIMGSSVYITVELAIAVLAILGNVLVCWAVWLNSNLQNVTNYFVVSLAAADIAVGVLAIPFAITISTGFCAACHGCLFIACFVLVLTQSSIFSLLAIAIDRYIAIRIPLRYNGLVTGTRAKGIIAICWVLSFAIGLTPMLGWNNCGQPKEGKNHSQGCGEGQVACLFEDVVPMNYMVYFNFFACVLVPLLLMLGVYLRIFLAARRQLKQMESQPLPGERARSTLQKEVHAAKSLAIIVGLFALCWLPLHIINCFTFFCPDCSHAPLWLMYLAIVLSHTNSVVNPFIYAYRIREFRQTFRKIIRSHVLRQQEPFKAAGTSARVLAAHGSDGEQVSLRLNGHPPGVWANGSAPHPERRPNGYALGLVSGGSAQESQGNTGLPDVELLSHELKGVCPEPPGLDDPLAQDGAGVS
Sequence of Acetylcholinesterase (Homo sapiens) (P22303 whole entry): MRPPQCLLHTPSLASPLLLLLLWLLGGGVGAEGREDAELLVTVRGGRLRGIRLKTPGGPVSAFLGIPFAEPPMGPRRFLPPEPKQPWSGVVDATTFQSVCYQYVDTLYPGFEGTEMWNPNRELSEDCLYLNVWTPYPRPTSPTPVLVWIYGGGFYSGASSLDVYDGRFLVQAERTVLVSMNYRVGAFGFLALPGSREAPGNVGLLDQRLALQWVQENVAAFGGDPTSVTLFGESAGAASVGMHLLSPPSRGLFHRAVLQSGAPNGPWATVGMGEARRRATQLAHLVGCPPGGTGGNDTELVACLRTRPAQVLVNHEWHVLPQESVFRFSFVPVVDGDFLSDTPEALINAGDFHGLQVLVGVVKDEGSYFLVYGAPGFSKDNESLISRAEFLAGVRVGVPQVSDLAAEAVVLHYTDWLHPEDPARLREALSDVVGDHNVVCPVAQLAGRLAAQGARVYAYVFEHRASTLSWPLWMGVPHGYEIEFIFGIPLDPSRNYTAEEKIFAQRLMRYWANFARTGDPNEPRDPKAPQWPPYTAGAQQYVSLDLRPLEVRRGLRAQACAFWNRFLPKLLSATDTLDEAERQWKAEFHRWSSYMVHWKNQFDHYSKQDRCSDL
Sequence of D(1A) dopamine receptor (Homo sapiens) (P21728 whole entry): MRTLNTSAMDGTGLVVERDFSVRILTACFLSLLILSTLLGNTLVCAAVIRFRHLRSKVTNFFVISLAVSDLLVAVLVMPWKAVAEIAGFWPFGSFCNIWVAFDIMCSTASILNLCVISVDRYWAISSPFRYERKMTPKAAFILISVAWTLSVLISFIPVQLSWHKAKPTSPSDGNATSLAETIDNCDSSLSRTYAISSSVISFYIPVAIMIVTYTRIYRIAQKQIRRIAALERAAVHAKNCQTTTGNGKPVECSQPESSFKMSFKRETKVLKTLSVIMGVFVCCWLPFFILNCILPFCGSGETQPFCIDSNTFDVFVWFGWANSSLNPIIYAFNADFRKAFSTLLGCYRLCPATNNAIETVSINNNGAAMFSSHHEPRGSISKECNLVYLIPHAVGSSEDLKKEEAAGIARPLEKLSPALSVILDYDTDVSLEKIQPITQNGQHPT

Row | SMILES | Papp [1] [×10⁻⁶ cm/s] | IC50 [2] [µM] | inhibition in vivo at 150 mg/kg (COLO 320DM) [%] | inhibition [3] [%] | inhibition [4] [%] | inhibition [5] [%] | inhibition [6] [%] | inhibition [7] [%] | inhibition [8] [%] | inhibition [9] [%] | inhibition [10] [%] | inhibition [11] [%] | inhibition [12] [%]
1 | COc1ccccc1N1CCN(c2nc3c(c(=O)[nH]2)CCCC3)CC1 | 0.34 | 0.0194 |  |  |  |  |  |  |  |  |  |  | 
2 | O=c1[nH]c(N2CCC3(CC2)CN(CCO)c2cc(F)cc(F)c23)nc2c1CCCC2 |  |  | 47.2 | > 20 | > 20 | > 20 | > 20 | > 20 | > 20 | > 20 | > 20 | > 20 | > 20

Reference: ChEMBL document CHEMBL4387706, “Discovery of Novel Spiroindoline Derivatives as Selective Tankyrase Inhibitors” (J Med Chem, 2019)
